Values of other authors in US20240156798A1, “ANTIOXIDANT COMPOSITIONS AND METHODS OF USE” (Sanare Pharmaceuticals, priority 2022, published 2024).
Entries after “also recorded” stand apart in the source; their conditions may differ. Like-named read-outs stand apart in the source and are kept apart here.

Columns and labels:
[1] = system: radiation induced alopecia; settings: topical, human clinical trials
[2] = hundreds of animal models
ocular damage [3] = settings: topical application, rat
[4] = system: chemically induced colitis; settings: in vivo
ocular damage [5] = settings: topical application, rhesus monkey
[6] = system: experimentally induced glaucoma; settings: C57BL/6J mice
[7] = system: high fat diet induced NAFLD; settings: for high fat diet induced NAFLD: mice fed a high fat diet
dry eye = settings: eye drop administration
IBD = settings: 168 patients, double blind, placebo-controlled
[8] = system: acetic acid-induced experimental colitis; settings: NAC 100 mg/kg for seven days
[9] = system: photo-induced retinal degeneration; settings: intraperitoneal injection
[10] = system: normal tension glaucoma (NTG)
[11] = system: human retinal pigment epithelium (RPE)
U.C. = U.C. patients, open label
retinal degeneration = settings: several models of neurodegeneration and damage, including retinal degeneration
ocular alkali burn = settings: in vivo
[12] = system: retinal ganglion cell (RCG) death after optic nerve crush
[13] = RPE from both positive and negative AMD donors
[14] = systemic treatment, following optic nerve crush

With “4-hydroxy-2,2,6,6-tetramethylpiperidin-1-oxyl [TEMPOL]” as the compound, how does the radiation induced alopecia [1] read?
The radiation induced alopecia was “protect”.

What about the “Glutathione S-Transferase (GST) gene(s) expression” value (gene expression) of the same compound?
Its value is “significantly increased”.

And the TNFα regulation (gene expression)?
Its TNFα regulation is “downregulates”.

What about the “expression levels of keratinocyte growth factor (KGF) gene” value (gene expression) of the same compound?
The value was “statistically increased”.

What about the “expression of HIF-1α” value (gene expression) of the same compound?
Its value is “statistically decreased”.

And the “expression of HIF-2α” value (gene expression)?
The value was “statistically decreased”.

What about the “expression of genes encoding for the 26s proteasome complex” value (gene expression) of the same compound?
Its value is “significantly decreased”.

What about the “expression of the ADIPOQ gene” value (gene expression) of the same compound?
Its value is “statistically increased”.

What about the UNC5b (gene expression; cancer cells) of the same compound?
The UNC5b was “significantly increases”.

What about the safety concerns [2] of the same compound?
Its safety concerns is “No safety concerns”.

What about the ocular damage (ocular damage [3]) of the same compound?
Its ocular damage is “decrease”.

What about the “degree of both neutrophil inflammation and lipid peroxidation in the inflamed bowel” value [4] of the same compound?
Its value is “Reduction in the degree of both neutrophil”.

And the ocular damage (ocular damage [5])?
Its ocular damage is “decrease”.

What about the “neuro-inflammation in the ocular hypertensive retina and optic nerve” value [6] of the same compound?
The value was “decreased”.

What about the “high fat diet induced NAFLD” value [7] of the same compound?
The value was “Can treat and prevent NAFLD in mice”.

Which results are given for CC(=O)N[C@@H](CS)C(=O)O [NAC, N-acetyl-cysteine]?
levels of ROS and inflammasome signaling (dry eye): diminished; Phase 2 study result (IBD): Positive results in a Phase 2; macroscopic and histological findings [8]: protective role; GSH concentration ([8]; compared to vehicle controls): restoration; NO concentration ([8]; compared to vehicle controls): restoration; colon tissue MPO activity ([8]; compared to vehicle controls): significant decrease; penetration to the posterior segment (retinitis pigmentosa; applied to the cornea): able to penetrate to the posterior segment; protecting the retina from oxidative damage (retinitis pigmentosa; applied topically to the eye): effective; oxidation and ER stresses [9]: suppressed; ROS accumulation in the retina ([9]; Balb/c mouse): inhibiting; glutathione levels ([10]; EAAC1 KO mice): increased; oxidative stress and autophagy ([10]; EAAC1 KO mice): suppressed; effect on retinal degeneration ([10]; mouse model of NTG): protective effect; decline of retinal function ([10]; mouse, in vivo): prevented; retinal ganglion cells (RGC), NTG-like neurodegeneration ([10]; mouse, in vivo): protected; chemically induced colitis [4]: Protects against chemically induced; glucose tolerance ([7]; HFD mice): improved; morphology of hepatic tissue ([7]; HFD mice): totally restored; hepatic steatosis and metabolic disturbances ([7]; mice fed high fat diets (HFD), compared to normally fed mice): significantly reduced; basal GSH content ([11]; AMD RPE): increase; basal ROS ([11]; AMD RPE): reduction; GSH depletion ([11]; H2O2, RPE from both positive and negative AMD donors): preventing; H2O2 induced cell death [11, 13]: preventing; excessive ROS accumulation [11, 13]: blocking; basal mitochondrial function (ATP) ([11]; both groups of cells): improved; effect on primary cultures of human RPE ([11]; patients with AMD): positive (protective) effect

With C[C@H](CCC(=O)NCCS(=O)(=O)O)[C@H]1CC[C@H]2[C@@H]3[C@@H](O)C[C@@H]4C[C@H](O)CC[C@]4(C)[C@H]3CC[C@]12C [TUDCA, tauroursodeoxycholic acid] as the compound, how does the “Phase 1 study testing efficacy and safety” value (U.C.) read?
The value was “Positive results in an open label Phase 1; also recorded: Positive results in Phase 1 study testing”.

And the chemically induced colitis [4]?
Its chemically induced colitis is “Active against chemically induced colitis”.

What about the “apoptosis following cellular injury” value (retinal degeneration) of the same compound?
Its value is “block”.

What about the “cornea and retina injury” value (ocular alkali burn) of the same compound?
The value was “protect”.

And the ocular inflammation (ocular alkali burn)?
Its ocular inflammation is “inhibit”.

What about the “retinal ganglion cells in the optic crush model” value ([12]; in vivo) of the same compound?
The value was “Protects retinal ganglia cells in the optic; also recorded: Protects retinal ganglion cells in the optic”.

And the RCGs survival [12, 14]?
Its RCGs survival is “significantly enhanced”.

What about the apoptosis [12, 14] of the same compound?
Its apoptosis is “suppressed”.

What about the “progression of HFD induced NALFD” value ([7]; TUDCA alone, mice) of the same compound?
The value was “attenuate”.

What about the “high fat diet induced NAFLD” value [7] of the same compound?
Its value is “markedly reduces”.

What about the gut inflammation ([7]; mouse, in vivo) of the same compound?
Its gut inflammation is “attenuates; also recorded: ameliorating”.

And the intestinal barrier function ([7]; mouse, in vivo)?
Its intestinal barrier function is “improves; also recorded: improving”.

What about the intestinal fat transport ([7]; mouse, in vivo) of the same compound?
The intestinal fat transport was “decreases; also recorded: decreasing”.

What about the intestinal microbiota composition ([7]; mouse, in vivo) of the same compound?
Its intestinal microbiota composition is “modulates; also recorded: modulating”.
